Test system: CbTA (ω-transaminase from Chloroflexi bacterium)
Test: HPLC initial rate, Michaelis-Menten nonlinear fit
Format: biochemical, Chloroflexota bacterium
Settings: 0.02 mM PLP, glycine-NaOH pH 8.5, 45 °C

Km (20 mM (R)-MBA co-substrate) [mM]	Km (20 mM pyruvate co-substrate) [mM]	SMILES
2.83		CC(=O)C(=O)O [C1, pyruvate]
	14.7	C[C@@H](N)c1ccccc1 [(R)-MBA]
